# Reference: patent publication US20120329709A1, “PRODUCTION OF GLYCOPROTEINS” (priority 2009, published 2012)
# Key:
# CHO cells [1] = experiment: LC-MS analysis of glycans from CTLA4Ig produced by CHO cells in the presence of elevated uridine; format: cell-based, Chinese hamster; settings: CTLA4Ig from uridine-supplemented CHO cells, compared to the untreated control
# Excerpt: FIG. 1 is a depiction of the levels of glycans from recombinant fusion protein CTLA4-IgG produced in the presence of elevated uridine. Data are expressed as the ratio of the amount of the indicated glycan from control conditions to the amount of the same glycan produced in the presence of elevated uridine. Values are the average +/−SD of duplicate determinants. A value greater than one indicates the species is in greater abundance under the control conditions.
# Chinese hamster ovary (CHO) cells were supplemented with the nucleoside uridine. Cells were harvested, and snap frozen, while culture supernatant was harvested and CTLA4Ig harvested by protein A purification for subsequent analysis. Cells were then subjected to nucleotide sugar extraction using standard methods. In short, this was performed with chloroform:methanol:water (2:4:1), the pellets discarded, and the resulting extraction dried down. The dried material was subsequently resuspended in 500 ul of 10% butanol in water and then extracted with 1 ml of 90% butanol in water. […] For quantification, sugar-nucletides were resolved with RP chromatography.
# Protein product was deglycosylated with PNGase F for 18 hours and the resulting glycans isolated with PGC chromatography. […] Resulting MS peak areas were quantified and for each glycan the ratio of the control vs. the uridine treated samples was determined.
# CHO cells [2] = experiment: Intracellular sugar-nucleotide levels from CHO cells cultured with Uridine supplementation; format: cell-based, Chinese hamster; parameters: CMP-NeuAc, average increase in sugar-nucloetide above no supplemented cells / UDP-Gal, average increase in sugar-nucloetide above no supplemented cells / UDP-Glc, average increase in sugar-nucloetide above no supplemented cells / UDP-GlcNAc, average increase in sugar-nucloetide above no supplemented cells / GDP-Man, average increase in sugar-nucloetide above no supplemented cells: unit not given here; settings: for CMP-NeuAc, average increase in sugar-nucloetide above no supplemented cells / GDP-Fuc, average increase in sugar-nucloetide above no supplemented cells / GDP-Man, average increase in sugar-nucloetide above no supplemented cells / UDP-Gal, average increase in sugar-nucloetide above no supplemented cells / UDP-Glc, average increase in sugar-nucloetide above no supplemented cells / UDP-GlcNAc, average increase in sugar-nucloetide above no supplemented cells: intracellular, CHO cells
# Description: Chinese hamster ovary (CHO) cells were supplemented with the nucleoside uridine. Cells were harvested, and snap frozen, while culture supernatant was harvested and CTLA4Ig harvested by protein A purification for subsequent analysis. Cells were then subjected to nucleotide sugar extraction using standard methods. In short, this was performed with chloroform:methanol:water (2:4:1), the pellets discarded, and the resulting extraction dried down. The dried material was subsequently resuspended in 500 ul of 10% butanol in water and then extracted with 1 ml of 90% butanol in water. The butanol phase was discarded and the acqueous subjected to a second butanol extraction. The final aqueous phase was dried down and the sugar nucleotides further isolated by PGC chromatography eluting off with 25% acetonitrile (v/v) containing 50 mM triethylammonium acetate. For quantification, sugar-nucletides were resolved with RP chromatography.
smiles,measurement,setting,value
"O=c1ccn([C@@H]2O[C@H](CO)[C@@H](O)[C@H]2O)c(=O)[nH]1 [Uridine, uridine]",level of the monogalactosylated species on the protein product,CHO cells [1],rises
same,levels of the uridine sugars including UDP-Gal and UDP-GlcNAc,CHO cells [2]; CHO cells supplemented with uridine,increased significantly
same,"CMP-NeuAc, average increase in sugar-nucloetide above no supplemented cells",CHO cells [2]; Uridine 2 x,32.13
same,"GDP-Fuc, average increase in sugar-nucloetide above no supplemented cells",CHO cells [2]; Uridine 2 x,6.5
same,"GDP-Man, average increase in sugar-nucloetide above no supplemented cells",CHO cells [2]; Uridine 2 x,6.06
same,"UDP-Gal, average increase in sugar-nucloetide above no supplemented cells",CHO cells [2]; Uridine 2 x,168.97
same,"UDP-Glc, average increase in sugar-nucloetide above no supplemented cells",CHO cells [2]; Uridine 2 x,409.16
same,"UDP-GlcNAc, average increase in sugar-nucloetide above no supplemented cells",CHO cells [2]; Uridine 2 x,402.7
same,"CMP-NeuAc, average increase in sugar-nucloetide above no supplemented cells",CHO cells [2]; Uridine 10 x,50.52
same,"GDP-Fuc, average increase in sugar-nucloetide above no supplemented cells",CHO cells [2]; Uridine 10 x,8.98
same,"GDP-Man, average increase in sugar-nucloetide above no supplemented cells",CHO cells [2]; Uridine 10 x,12.45
same,"UDP-Gal, average increase in sugar-nucloetide above no supplemented cells",CHO cells [2]; Uridine 10 x,389.06
same,"UDP-Glc, average increase in sugar-nucloetide above no supplemented cells",CHO cells [2]; Uridine 10 x,1261.96
same,"UDP-GlcNAc, average increase in sugar-nucloetide above no supplemented cells",CHO cells [2]; Uridine 10 x,2280.49
